Source: patent publication US20060008483A1, “Dispersions of lipids for use as therapeutic and cosmetic agents and intracellular delivery vehicles” (Biotech Tools SA, priority 2002, published 2006)

How the values were obtained:
[1] = system: COS-7L cells (monkey fibroblasts); assay: Transfection of fibroblast cells with micellar dispersions of an amidinium salt, beta-galactosidase activity assay; type: cell-based; settings: pCMV-β plasmid, relative to Lipofectamine plus, 3 h + 20 h incubation
Method: Functional transfection efficiency was then measured by means of a beta-galactosidase (hereinafter referred as β-GAL) activity assay as follows: cells were lysed by adding 250 μl of a lysis buffer (0.1 M potassium phosphate, 0.5% Triton® X-100, 0.1% deoxycholate, pH 7.0). The cell lysate (50 μl) was mixed with 50 μl o-nitrophenyl-β-D-galactopyranoside (1.54 mg/ml in 0.1 potassium phosphate buffer, pH 7.0) and incubated at 37° C. for 30 minutes. The reaction was terminated by adding 160 μl of 1 M Na2CO3 and absorbance was determined using a spectrophotometer at 405 nm. β-GAL activity was calculated using a β-GAL standard curve.
Immediately before the transfection experiments, the amidinium salt of Example 9 was dissolved at a concentration of 0.1 mg/mL in water containing 5.0 g/l glucose and 0.1 mg/mL protamine sulfate. The solution was successively vortexed, heated during 15 minutes at 50° C. and then cooled at 20° C.
COS-7L cells (monkey fibroblasts) were grown in DMEM supplemented with 10% heat inactivated foetal bovine serum and penicellin 100 IU/mL-streptomycin 100 μg/mL, and were maintained at 37° C. in a humidified 5% incubator. […]
(§1) Transfection efficiency was measured in terms of beta-galactosidase activity using the beta-galactosidase activity assay described in Example 5 above. Cytotoxicity was determined as described in Example 2 above.

[2] = system: COS-7L cells (monkey fibroblasts); assay: Cytotoxicity in the micellar transfection experiment, determined as in Example 2; type: cell-based; settings: transfection conditions of Example 12
Method: The resulting titrated liposomes were cooled and then passed through a 0.2 μm filter (in order to eliminate large particles) and an average liposome size of 90 nm was measured. Filtered liposomes were then packed in sterile vials and stored at 4° C. […] Cytotoxicity was determined by means of a (3-(4,5-dimethylthiazol-2-yl)-2,5-diphenyl tetrazolium bromide assay, using a kit commercially available from Promega Benelux (Leyden, The Netherlands). COS-7 monkey fibroblast cell survival was expressed as the amount of dye reduction relative to that of the untreated control cells. The titrated liposomes are not toxic on COS-7 cells, as determined by the Cytotox 96 non-radioactive cytotoxy assay G 1780.
COS-7L cells (monkey fibroblasts) were grown in DMEM supplemented with 10% heat inactivated foetal bovine serum and penicellin 100 IU/mL-streptomycin 100 μg/mL, and were maintained at 37° C. in a humidified 5% incubator. One day prior to the transfection experiment, the cells were seeded in a 24-well culture dish and allowed to reach at least 80% confluency.
as §1

[3] = system: Chinese hamster Ovary cells or K562 human myeloid cells; settings: MLV, WO 95/17378; cited from earlier work
[4] = Critical micellar concentration by surface tension (langmuir balance); type: physicochemical; settings: 25° C.
Method: The amidinium salt of example 9 was dissolved at various concentrations in either water pH 7.0, PB (20 mM phosphate, pH 7.3) or in PBS (20 mM phosphate buffer, 150 mM NaCl, pH 7.3).
A langmuir balance (Krüss K12) was used to measure the surface tension of a solution of increasing amino-amidine concentration. […] The corresponding concentration was taken as CMC.
To determine the effect of protamine sulfate on the CMC protamine sulfate (PS) was added at a final concentration of 0.2 mg/mL to solutions of increasing concentration of the amidinium salt of Example 9.

SMILES	β-gal relative activity [1] [%]	Toxicity [2]	transfection efficiencies [3] [%]	CMC ([4]; in PB (20 mM phosphate, pH 7.3)) [M]	CMC ([4]; in PBS (20 mM phosphate buffer, 150 mM NaCl, pH 7.3)) [M]	CMC ([4]; in PBS + protamine sulfate 0.2 mg/mL) [M]	CMC ([4]; in water pH 7.0, in M)
CCCCCCCCCCCCCCN=C(CCNCCCCCCCCCCCCCC)NC(C)(C)C [DiC14iPr, N-terbutyl-N′-tetradecyl-3-tetradecyl-aminopropionamidine]	150	None	60 to 68	–	–	–	–
CCCCCCCCCCCCCCN=C(CCNCCCCCCCCCCCCCC)NC(C)(C)C [Example 9, N-terbutyl-N′-tetradecyl-3-tetradecyl-aminopropionamidine]	–	–	–	5.25e-05	6.75e-05	2e-05	5×10^−4
